A value given as a limit tells only on which side of the number the result lay.

For assay [1], the target named is T1, RORγ ligand binding domain (Homo sapiens, UniProt P51449). Description: RORγ co-factor recruitment assay (FRET). The class given is biochemical. Further details: made in house; host or cells: E. coli BL21DE3 Star. The settings on record: inhibition of recruitment of SRC-1 peptide (NCOA1_677-700) to hRORγ LBD, HTRF read-out. From the text: RORγ Co-Factor Recruitment Assay A high throughput coactivator binding assay for the identification of inverse agonists of the recruitment of peptide SRC-1 (NCOA1_677-_700) to the RORγ ligand binding domain was established. The ligand binding domain (LBD) of human RORγ was expressed in E. coli (BL21DE3 Star) as a fusion protein: N-6×HN-MBP-Avi-TCS-hRORγLBD(P260-K518) subcloned into pET24a(+). The LBD (P260-K518) is underlined in the protein sequence: The assay was run in black 384 well plates (Greiner cat no: 784900). Various concentrations of test ligands in 0.1 microlitres DMSO were dispensed to assay plates using an Echo acoustic dispenser. Two pre-mixes were prepared and incubated for 1 h at room temp in the dark. Pre-mix 1 comprised 100 nM Protein (Biotinylated HN-Avi-MBP-TCS-hRORγ (258-518)) and 60 nM Streptavidin APC in assay buffer, 50 mM MOPS pH7.4, 50 mM KF, 0.003% (w/v) CHAPS, 10 mM DTT and 0.01% (w/v) BSA and pre-mix 2 comprised 160 nM biotinylated SRC-1 peptide (NCOA1-677-700) and 20 nM Europium-W8044 labelled Streptavidin in assay buffer. Five microlitres of pre-mix 2 was dispensed to assay plates containing 0.1 microlitres of test compound and was incubated for 15 min prior to adding five microlitres of pre-mix 1. Plates were incubated at rt for 1 hour in the dark, prior to reading in a Pherastar multi-mode plate reader using HTRF filter set (ex 320, em 612 and 665). The FRET signal at 665 nm was divided by the signal at 612 nm and multiplied by 10,000 to generate a signal ratio value for each well. The raw data was transformed to % effect using the equation: Compound % effect=100*[(X−min)/(max−min)], where X represents the normalized value for the compound based on the Min (vehicle) and Max (reference compound) inhibition control. The concentration of test ligand that inhibited the activity by 50% (i.e., the IC50) was calculated by plotting the % effect versus test ligand concentration and fitting the data using the Genedata Screener Smart fit algorithm.
For orientation: In TR-FRET formats the signal depends on donor and acceptor labels being close together.

Assay [2] has as its target T1, RORγ ligand binding domain. Briefly: RORγ radioligand competition binding assay (SPA). As to conditions: competition with tritiated 2-(4-(ethylsulfonyl)phenyl)-N-(4-(2-(methoxymethyl)phenyl)thiophen-2-yl)acetamide (25 nM), hRORγ LBD. From the text: RORγ Radioligand Competition Binding Assay The aim of this assay is to identify compounds which bind to the RORγ ligand binding domain, by competing with tritiated 2-(4-(ethylsulfonyl)phenyl)-N-(4-(2-(methoxymethyl)phenyl)thiophen-2-yl)acetamide. Human RORγ (Ligand Binding Domain (RORγ LBD) was expressed in E. coli (BL21DE3 Star) as a fusion protein: N-6×HN-Avi-GST-TCS-hRORγ LBD (S258-K518) subcloned into pET24a(+). The LBD (258-518) is underlined in the protein sequence: The scintillation proximity assay (SPA) was run in white polystyrene flat-bottom 384-well plates (Greiner, cat. No. 781075). Assays were carried out in 40 μl reaction volumes. Various concentrations of test ligands in 0.4 microlitres of DMSO were added to assay plates using an acoustic liquid dispenser. 4 nM purified N-(HN)6-GST-TCS-hRORγ (258-518) was mixed with 40 micrograms Yttrium oxide (YOx) glutathione SPA imaging beads in assay buffer (20 mM Tris, 150 mM NaCl, 10% Glycerol, 0.25% CHAPS, 1 mM TCEP) prior to adding 30 microlitres to test ligands. Assay plates were incubated for one hour at room temperature before adding 10 microlitres tritiated 2-(4-(ethylsulfonyl)phenyl)-N-(4-(2-(methoxymethyl)phenyl)thiophen-2-yl)acetamide to test plates in assay buffer (final concentration, 25 nM). Test plates were incubated for 16 hours and read using a LEADseeker Multimodality imaging instrument. The raw data was analysed and IC50 and Ki values for the compounds were calculated using Genedata Screener software. Raw data was transformed to % effect using equation 1: Compound % effect=100*[(X−min)/(max−min)], where X represents the normalized value for the compound based on the Min (vehicle) and Max (reference compound) inhibition controls. The concentration of test ligand that inhibited radioligand binding by 50% (i.e., the IC50) was calculated by plotting the % effect versus test ligand concentration and fitting the data using the Genedata Screener Smart fit algorithm. Ki is calculated from the IC50 value using the equation Ki=IC50/1+[L]/Kd) where [L]=25 nmol/L and Kd=17 nmol/L
In general terms: Displacement assays read how much labelled ligand stays bound in the presence of the test substance.

As usually defined, the IC50 is the point on the concentration scale where inhibition reaches its midpoint. Consider `CC(=O)N1Cc2cc(S(C)(=O)=O)ccc2C1C(=O)Nc1ccc(C(n2ccnn2)(C(F)(F)F)C(F)(F)F)cc1` (centres unmarked) [Example 29, 2-Acetyl-N-{4-[1,1,1,3,3,3-hexafluoro-2-(1H-1,2,3-triazol-1-yl)propan-2-yl]phenyl}-5-(methylsulfonyl)-2,3-dihydro-1H-isoindole-1-carboxamide], for which the IC50 was 100 nM in assay [1] and 39.8 nM in assay [2].
Regarding `CC(=O)N1Cc2cc(S(C)(=O)=O)ccc2C1C(=O)Nc1ccc(C(N(C)C)(C(F)(F)F)C(F)(F)F)cc1` (centres unmarked) [Example 25, 2-Acetyl-N-{4-[2-(dimethylamino)-1,1,1,3,3,3-hexafluoropropan-2-yl]phenyl}-5-(methylsulfonyl)-2,3-dihydro-1H-isoindole-1-carboxamide], the IC50 is 39.8 nM in assay [1] and 6.31 nM in assay [2].
Regarding `COC(=O)N1Cc2cc(S(C)(=O)=O)ccc2C1C(=O)Nc1ccc(C(C#N)(C(F)(F)F)C(F)(F)F)cc1` (centres unmarked) [Example 7, Methyl 1-{[4-(2-cyano-1,1,1,3,3,3-hexafluoropropan-2-yl)phenyl]carbamoyl}-5-(methylsulfonyl)-1,3-dihydro-2H-isoindole-2-carboxylate], the IC50 is 50.1 nM in assay [1] and 12.6 nM in assay [2].
`CC(=O)N1Cc2cc(S(C)(=O)=O)ccc2C1C(=O)Nc1ccc(C(NCCS(C)(=O)=O)(C(F)(F)F)C(F)(F)F)cc1` (centres unmarked) [Example 26, 2-Acetyl-N-[4-(1,1,1,3,3,3-hexafluoro-2-{[2-(methylsulfonyl)ethyl]amino}propan-2-yl)phenyl]-5-(methylsulfonyl)-2,3-dihydro-1H-isoindole-1-carboxamide]: the figures for the half-inhibitory concentration (IC50) in assay [1] and in assay [2] were 1000 nM and 631 nM, respectively.
Regarding `CC(=O)N1Cc2cc(S(C)(=O)=O)ccc2C1C(=O)Nc1ccc(C(CC(=O)OC(C)C)(C(F)(F)F)C(F)(F)F)cc1` (centres unmarked) [Example 40, Propan-2-yl 3-[4-({[2-acetyl-5-(methylsulfonyl)-2,3-dihydro-1H-isoindol-1-yl]carbonyl}amino)phenyl]-4,4,4-trifluoro-3-(trifluoromethyl)butanoate], the values for the IC50 in assay [1] and in assay [2] were greater than 31600 nM and 12.6 nM, respectively.
Consider `COC(c1ccc(NC(=O)C2c3ccc(S(C)(=O)=O)cc3CN2C(C)=O)cc1)(C(F)(F)F)C(F)(F)F` (centres unmarked) [Example 28, 2-Acetyl-N-[4-(1,1,1,3,3,3-hexafluoro-2-methoxypropan-2-yl)phenyl]-5-(methylsulfonyl)-2,3-dihydro-1H-isoindole-1-carboxamide], for which the IC50 in assay [1] was 39.8 nM; in assay [2], 7.94 nM.
`CS(=O)(=O)c1ccc2c(c1)CN(C(=O)CCN)C2C(=O)Nc1ccc(C(C#N)(C(F)(F)F)C(F)(F)F)cc1` (centres unmarked) [Example 11, 2-(3-Aminopropanoyl)-N-[4-[1-cyano-2,2,2-trifluoro-1-(trifluoromethyl)ethyl]phenyl]-5-methylsulfonyl-isoindoline-1-carboxamide]: the IC50 in assay [1] was 158 nM; in assay [2] it was 25.1 nM.
Take `CS(=O)(=O)c1ccc2c(c1)CN(C(=O)CN)C2C(=O)Nc1ccc(C(C#N)(C(F)(F)F)C(F)(F)F)cc1` (centres unmarked) [Example 10, N-[4-(2-Cyano-1,1,1,3,3,3-hexafluoropropan-2-yl)phenyl]-2-glycyl-5-(methylsulfonyl)-2,3-dihydro-1H-isoindole-1-carboxamide]: the results for the concentration for half-maximal inhibition (IC50) in assay [1] and in assay [2] were 79.4 nM and 25.1 nM, respectively.
On to `CNC(c1ccc(NC(=O)C2c3ccc(S(C)(=O)=O)cc3CN2C(C)=O)cc1)(C(F)(F)F)C(F)(F)F` (centres unmarked) [Example 24, 2-Acetyl-N-{4-[1,1,1,3,3,3-hexafluoro-2-(methylamino)propan-2-yl]phenyl}-5-(methylsulfonyl)-2,3-dihydro-1H-isoindole-1-carboxamide], for which the IC50 in assay [1] was 50.1 nM; in assay [2] it was 31.6 nM.
For `CS(=O)(=O)c1ccc2c(c1)CN(C(=O)CCC(=O)O)C2C(=O)Nc1ccc(C(C#N)(C(F)(F)F)C(F)(F)F)cc1` (centres unmarked) [Example 9, 4-[1-{[4-(2-Cyano-1,1,1,3,3,3-hexafluoropropan-2-yl)phenyl]carbamoyl}-5-(methylsulfonyl)-1,3-dihydro-2H-isoindol-2-yl]-4-oxobutanoic acid], in that order: 100 nM and 10 nM.
For the compound `CC(=O)N1Cc2cc(S(C)(=O)=O)ccc2C1C(=O)Nc1ccc(C(CC(=O)OC(C)(C)C)(C(F)(F)F)C(F)(F)F)cc1` (centres unmarked) [Example 44, tert-Butyl 3-[4-({[2-acetyl-5-(methylsulfonyl)-2,3-dihydro-1H-isoindol-1-yl]carbonyl}amino)phenyl]-4,4,4-trifluoro-3-(trifluoromethyl)butanoate], the 50% inhibitory concentration (IC50) in assay [1] is greater than 31600 nM; in assay [2] it was 15.8 nM.
For `COCC(=O)N1Cc2cc(S(C)(=O)=O)ccc2C1C(=O)Nc1ccc(C(C#N)(C(F)(F)F)C(F)(F)F)cc1` (centres unmarked) [Example 8, N-[4-(2-Cyano-1,1,1,3,3,3-hexafluoropropan-2-yl)phenyl]-2-(methoxyacetyl)-5-(methylsulfonyl)-2,3-dihydro-1H-isoindole-1-carboxamide], in that order: 50.1 nM and 12.6 nM.
As to `CC(=O)N1Cc2cc(S(C)(=O)=O)ccc2C1C(=O)Nc1ccc(C(CC(=O)N2CC(C)(F)C2)(C(F)(F)F)C(F)(F)F)cc1` (centres unmarked) [Example 39, 2-Acetyl-5-(methylsulfonyl)-N-{4-[1,1,1-trifluoro-4-(3-fluoro-3-methylazetidin-1-yl)-4-oxo-2-(trifluoromethyl)butan-2-yl]phenyl}-2,3-dihydro-1H-isoindole-1-carboxamide], the values for the IC50 in assay [1] and in assay [2] were greater than 31600 nM and 398 nM, respectively.
For `CC(=O)N1Cc2cc(S(C)(=O)=O)ccc2C1C(=O)Nc1ccc(C(NCCOC(C)C)(C(F)(F)F)C(F)(F)F)cc1` (centres unmarked) [Example 27, 2-Acetyl-N-[4-(1,1,1,3,3,3-hexafluoro-2-{[2-(propan-2-yloxy)ethyl]amino}propan-2-yl)phenyl]-5-(methylsulfonyl)-2,3-dihydro-1H-isoindole-1-carboxamide] the same measures were greater than 31600 nM and 7.94 nM.
For the compound `CS(=O)(=O)c1ccc2c(c1)CN(C=O)C2C(=O)Nc1ccc(C(C#N)(C(F)(F)F)C(F)(F)F)cc1` (centres unmarked) [Example 6, N-[4-(2-Cyano-1,1,1,3,3,3-hexafluoropropan-2-yl)phenyl]-2-formyl-5-(methylsulfonyl)-2,3-dihydro-1H-isoindole-1-carboxamide], the IC50 is 39.8 nM in assay [1] and 10 nM in assay [2].
For the compound `CCCNC(c1ccc(NC(=O)C2c3ccc(S(C)(=O)=O)cc3CN2C(C)=O)cc1)(C(F)(F)F)C(F)(F)F` (centres unmarked) [Example 16, 2-Acetyl-N-{4-[1,1,1,3,3,3-hexafluoro-2-(propylamino)propan-2-yl]phenyl}-5-(methylsulfonyl)-2,3-dihydro-1H-isoindole-1-carboxamide], the IC50 is 39.8 nM in assay [1] and 6.31 nM in assay [2].

For the origin of these results see patent publication US11034654B2, “2,3-dihydroisoindole-1-carboxamides useful as ROR-gamma modulators” (AstraZeneca AB, priority 2017, dated 2021).
